Data taken from patent US20050282743A1, “Molecular interactions in cells” (Arbor Vita Corporation, priority 2001, published 2005).
Ends that are not written are not given here. Peptide text beside a SMILES is read from it. * marks the point of attachment. Biotin = O=C1N[C@H]2[C@H](CS[C@H]2CCCCC(=O)*)N1

Tests used:
Test in all cases: G' assay (10 uM PL peptide), results of TABLE 7 and TABLE 12
Assay type in all cases: binding
[1] = molecular target: T1, PDZ protein (GST-PDZ fusion) (Homo sapiens, UniProt Q6P0Q8)
T1 construct: made in house; host or cells: E. coli (DH5alpha, BL21 or JM109)
Procedure, shortened: (§1)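 Biotinylated PL peptides at 10 uM (vs 20 uM in G^0 assay) bound to GST-PDZ fusions; PDZ protein at 5 ug/ml unless another concentration listed. Bound peptide read as A450 nm, classified 0–5 (0 = A450 0; 5 = A450 >4 repeated).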

[2] = molecular target: T2, PDZ protein (GST-PDZ fusion) (Homo sapiens, UniProt O75970)
T2 construct: made in house; host or cells: E. coli (DH5alpha, BL21 or JM109)
Procedure, shortened: as §1

[3] = molecular target: T3, PDZ protein (GST-PDZ fusion) (Homo sapiens, UniProt Q5TCQ9)
T3 construct: made in house; host or cells: E. coli (DH5alpha, BL21 or JM109)
T3 sequence (Q5TCQ9 1-1481): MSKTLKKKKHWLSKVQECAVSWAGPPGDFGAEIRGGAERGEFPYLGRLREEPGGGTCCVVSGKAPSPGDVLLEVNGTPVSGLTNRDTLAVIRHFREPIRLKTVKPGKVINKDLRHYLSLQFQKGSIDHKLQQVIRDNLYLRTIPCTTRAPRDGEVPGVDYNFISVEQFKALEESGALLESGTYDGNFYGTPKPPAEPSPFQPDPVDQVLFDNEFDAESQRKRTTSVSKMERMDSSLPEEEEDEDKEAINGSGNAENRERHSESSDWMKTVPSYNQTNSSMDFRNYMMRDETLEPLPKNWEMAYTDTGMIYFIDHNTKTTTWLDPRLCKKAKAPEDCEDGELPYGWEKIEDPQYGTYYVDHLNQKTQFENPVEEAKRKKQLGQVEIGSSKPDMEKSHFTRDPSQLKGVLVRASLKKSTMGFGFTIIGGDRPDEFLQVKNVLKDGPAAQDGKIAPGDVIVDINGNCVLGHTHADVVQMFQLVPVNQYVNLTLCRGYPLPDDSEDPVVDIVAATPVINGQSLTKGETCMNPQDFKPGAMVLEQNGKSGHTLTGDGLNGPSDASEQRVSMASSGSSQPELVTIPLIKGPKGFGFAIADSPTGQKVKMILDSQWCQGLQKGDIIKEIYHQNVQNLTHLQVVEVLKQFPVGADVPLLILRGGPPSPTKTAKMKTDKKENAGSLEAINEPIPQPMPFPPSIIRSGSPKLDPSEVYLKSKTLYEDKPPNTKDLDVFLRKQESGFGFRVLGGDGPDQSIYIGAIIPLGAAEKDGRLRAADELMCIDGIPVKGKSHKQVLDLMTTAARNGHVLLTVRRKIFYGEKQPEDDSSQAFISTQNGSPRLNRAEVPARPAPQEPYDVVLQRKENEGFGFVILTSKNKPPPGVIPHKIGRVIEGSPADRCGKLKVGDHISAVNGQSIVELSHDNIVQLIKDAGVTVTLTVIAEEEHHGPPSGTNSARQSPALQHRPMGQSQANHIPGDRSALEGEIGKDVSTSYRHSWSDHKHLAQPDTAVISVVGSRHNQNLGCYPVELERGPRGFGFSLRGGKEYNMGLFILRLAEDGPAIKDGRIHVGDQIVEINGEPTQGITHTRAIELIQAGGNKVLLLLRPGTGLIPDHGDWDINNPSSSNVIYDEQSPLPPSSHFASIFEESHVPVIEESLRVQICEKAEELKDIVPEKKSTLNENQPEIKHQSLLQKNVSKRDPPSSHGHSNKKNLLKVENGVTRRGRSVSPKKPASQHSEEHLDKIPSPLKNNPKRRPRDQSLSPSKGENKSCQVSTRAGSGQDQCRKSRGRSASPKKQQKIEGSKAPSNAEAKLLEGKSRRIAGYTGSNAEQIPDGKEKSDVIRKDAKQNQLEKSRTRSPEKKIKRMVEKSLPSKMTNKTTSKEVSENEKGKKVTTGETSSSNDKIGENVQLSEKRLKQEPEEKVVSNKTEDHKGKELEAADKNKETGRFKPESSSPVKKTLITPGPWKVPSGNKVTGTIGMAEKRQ
Procedure, shortened: as §1

[4] = PDZ KIAA807, PDZ Domain not given

T2 sequence (O75970 whole entry, the tested form may be a part): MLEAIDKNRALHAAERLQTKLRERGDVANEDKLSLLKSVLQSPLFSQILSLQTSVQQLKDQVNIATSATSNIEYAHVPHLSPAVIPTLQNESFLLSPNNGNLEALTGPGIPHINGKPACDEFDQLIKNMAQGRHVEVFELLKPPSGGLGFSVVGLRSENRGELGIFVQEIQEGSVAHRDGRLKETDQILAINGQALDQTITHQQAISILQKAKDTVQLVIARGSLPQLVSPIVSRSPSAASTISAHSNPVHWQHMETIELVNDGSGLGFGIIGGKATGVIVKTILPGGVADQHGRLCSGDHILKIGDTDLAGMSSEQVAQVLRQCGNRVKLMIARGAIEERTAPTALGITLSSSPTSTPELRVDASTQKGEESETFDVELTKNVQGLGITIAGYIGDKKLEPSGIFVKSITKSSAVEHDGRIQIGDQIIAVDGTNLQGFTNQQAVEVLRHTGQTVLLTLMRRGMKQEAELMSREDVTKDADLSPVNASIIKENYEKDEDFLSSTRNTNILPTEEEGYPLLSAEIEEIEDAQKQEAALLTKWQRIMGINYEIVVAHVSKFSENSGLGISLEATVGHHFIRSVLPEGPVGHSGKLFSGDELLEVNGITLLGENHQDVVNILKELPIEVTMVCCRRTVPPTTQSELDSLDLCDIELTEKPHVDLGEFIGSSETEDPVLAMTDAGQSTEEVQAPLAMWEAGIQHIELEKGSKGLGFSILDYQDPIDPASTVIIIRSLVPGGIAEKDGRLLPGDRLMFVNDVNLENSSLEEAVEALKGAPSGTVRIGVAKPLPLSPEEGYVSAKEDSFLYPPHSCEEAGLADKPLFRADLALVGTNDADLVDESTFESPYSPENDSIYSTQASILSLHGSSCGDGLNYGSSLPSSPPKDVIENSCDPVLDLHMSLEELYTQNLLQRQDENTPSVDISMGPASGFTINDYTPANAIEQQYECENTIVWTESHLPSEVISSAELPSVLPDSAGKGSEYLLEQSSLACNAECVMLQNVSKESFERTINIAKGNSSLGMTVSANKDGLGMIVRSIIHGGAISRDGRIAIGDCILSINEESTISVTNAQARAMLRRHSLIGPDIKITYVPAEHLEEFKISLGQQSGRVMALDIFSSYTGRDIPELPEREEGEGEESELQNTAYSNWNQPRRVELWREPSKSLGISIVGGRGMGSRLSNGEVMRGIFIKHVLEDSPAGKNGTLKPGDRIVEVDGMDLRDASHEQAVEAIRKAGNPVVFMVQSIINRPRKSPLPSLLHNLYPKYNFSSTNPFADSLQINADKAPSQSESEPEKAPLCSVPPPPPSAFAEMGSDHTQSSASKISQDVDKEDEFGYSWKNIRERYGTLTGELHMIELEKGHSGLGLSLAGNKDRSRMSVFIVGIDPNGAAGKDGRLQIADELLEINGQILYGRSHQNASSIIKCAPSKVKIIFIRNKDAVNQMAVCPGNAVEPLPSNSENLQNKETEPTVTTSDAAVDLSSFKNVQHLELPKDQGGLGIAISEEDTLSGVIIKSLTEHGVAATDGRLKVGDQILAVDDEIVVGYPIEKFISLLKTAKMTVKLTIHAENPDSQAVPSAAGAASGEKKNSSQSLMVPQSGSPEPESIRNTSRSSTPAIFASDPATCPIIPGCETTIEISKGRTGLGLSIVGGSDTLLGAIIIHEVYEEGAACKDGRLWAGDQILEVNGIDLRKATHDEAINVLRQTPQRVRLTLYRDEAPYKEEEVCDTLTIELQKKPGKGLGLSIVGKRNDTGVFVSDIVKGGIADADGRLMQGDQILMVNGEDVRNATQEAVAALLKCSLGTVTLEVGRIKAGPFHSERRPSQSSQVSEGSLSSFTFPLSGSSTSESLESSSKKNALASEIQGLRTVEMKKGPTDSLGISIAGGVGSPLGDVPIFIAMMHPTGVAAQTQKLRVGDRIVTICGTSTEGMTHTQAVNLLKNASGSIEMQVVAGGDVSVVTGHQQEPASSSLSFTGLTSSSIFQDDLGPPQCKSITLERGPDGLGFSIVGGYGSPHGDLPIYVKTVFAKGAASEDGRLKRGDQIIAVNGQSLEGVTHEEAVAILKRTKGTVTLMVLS
T1 sequence (Q6P0Q8 whole entry, the tested form may be a part): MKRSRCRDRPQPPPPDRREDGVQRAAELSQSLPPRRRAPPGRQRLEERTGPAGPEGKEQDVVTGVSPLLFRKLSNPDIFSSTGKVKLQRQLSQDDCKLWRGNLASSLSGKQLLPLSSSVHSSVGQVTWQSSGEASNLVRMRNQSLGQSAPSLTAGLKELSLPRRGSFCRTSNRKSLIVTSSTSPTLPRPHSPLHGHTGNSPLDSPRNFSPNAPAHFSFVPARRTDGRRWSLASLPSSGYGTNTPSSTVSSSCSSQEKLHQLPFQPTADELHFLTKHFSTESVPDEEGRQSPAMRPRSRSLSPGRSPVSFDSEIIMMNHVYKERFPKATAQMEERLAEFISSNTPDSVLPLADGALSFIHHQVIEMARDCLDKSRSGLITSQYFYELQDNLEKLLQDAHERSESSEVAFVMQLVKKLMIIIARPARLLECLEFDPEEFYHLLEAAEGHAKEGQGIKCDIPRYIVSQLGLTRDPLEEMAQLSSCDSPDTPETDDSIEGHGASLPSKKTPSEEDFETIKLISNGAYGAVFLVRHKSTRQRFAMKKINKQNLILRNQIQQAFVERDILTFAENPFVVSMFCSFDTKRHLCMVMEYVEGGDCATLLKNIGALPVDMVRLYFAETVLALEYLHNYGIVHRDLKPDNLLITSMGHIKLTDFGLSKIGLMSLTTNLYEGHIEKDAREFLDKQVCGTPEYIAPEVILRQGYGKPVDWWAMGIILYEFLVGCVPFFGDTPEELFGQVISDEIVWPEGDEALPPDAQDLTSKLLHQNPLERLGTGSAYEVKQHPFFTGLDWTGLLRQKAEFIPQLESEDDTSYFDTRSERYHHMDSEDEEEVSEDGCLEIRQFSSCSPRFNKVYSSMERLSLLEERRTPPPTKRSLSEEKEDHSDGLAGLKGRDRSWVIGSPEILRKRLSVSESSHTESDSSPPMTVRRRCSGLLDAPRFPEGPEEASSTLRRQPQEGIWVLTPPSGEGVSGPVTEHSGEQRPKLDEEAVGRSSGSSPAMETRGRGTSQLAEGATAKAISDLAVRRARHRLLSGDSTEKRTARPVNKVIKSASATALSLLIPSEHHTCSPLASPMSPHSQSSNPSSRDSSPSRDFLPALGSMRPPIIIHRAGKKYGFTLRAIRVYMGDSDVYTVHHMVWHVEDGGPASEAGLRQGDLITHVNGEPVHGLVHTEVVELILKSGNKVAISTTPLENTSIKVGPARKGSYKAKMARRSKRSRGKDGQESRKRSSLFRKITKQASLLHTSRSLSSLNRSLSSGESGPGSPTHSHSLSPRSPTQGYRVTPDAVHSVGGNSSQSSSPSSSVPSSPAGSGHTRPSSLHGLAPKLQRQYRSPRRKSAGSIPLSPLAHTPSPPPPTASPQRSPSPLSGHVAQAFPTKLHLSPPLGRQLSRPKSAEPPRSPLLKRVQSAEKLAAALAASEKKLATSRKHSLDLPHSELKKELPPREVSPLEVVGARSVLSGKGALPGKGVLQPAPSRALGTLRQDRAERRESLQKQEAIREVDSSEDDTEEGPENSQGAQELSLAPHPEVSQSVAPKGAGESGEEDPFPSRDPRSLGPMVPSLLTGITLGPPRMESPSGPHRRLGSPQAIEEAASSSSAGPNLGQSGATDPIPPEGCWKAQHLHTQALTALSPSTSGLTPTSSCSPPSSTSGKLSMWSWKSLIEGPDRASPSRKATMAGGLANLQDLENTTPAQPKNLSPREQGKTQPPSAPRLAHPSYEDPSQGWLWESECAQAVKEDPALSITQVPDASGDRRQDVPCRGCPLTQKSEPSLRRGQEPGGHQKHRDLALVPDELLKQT

CC[C@H](C)[C@H](NC(=O)[C@H](CC(=O)O)NC(=O)[C@H](CCC(=O)O)NC(=O)[C@H](CCCNC(=N)N)NC(=O)[C@@H](NC(=O)CCCC[C@@H]1SC[C@@H]2NC(=O)N[C@@H]21)[C@@H](C)O)C(=O)N[C@@H](Cc1ccc(O)cc1)C(=O)N[C@H](C(=O)N[C@@H](CC(N)=O)C(=O)N[C@@H](Cc1ccc(O)cc1)C(=O)N1CCC[C@H]1C(=O)N[C@H](C(=O)N[C@@H](Cc1ccccc1)C(=O)N[C@@H](CO)C(=O)N[C@@H](CCCNC(=N)N)C(=O)N[C@@H](CCCNC(=N)N)C(=O)N1CCC[C@H]1C(=O)N[C@@H](CCCCN)C(=O)N[C@H](C(=O)N[C@@H](CCCNC(=N)N)C(=O)N[C@H](C(=O)O)C(C)C)[C@@H](C)O)[C@@H](C)O)C(C)C [DNAM-1] (Biotin-TREDIYVNYPTFSRRPKTRV-OH; C-terminus assumed)
Classification ([1]; PDZ KIAA807): 3 (A450 nm 2-3) | Classification ([1]; PDZ KIAA0807(S), PDZ Domain 1): 3 (A450 nm 2-3) | Classification ([2]; PDZ MUPP-1, PDZ Domain 10): 4 (A450 nm 3-4) | Classification ([3]; PDZ KIAA1634, PDZ Domain 1): 5 (A450 nm of 4 more than 2× repeated)

CC(C)C[C@H](NC(=O)[C@H](C)NC(=O)[C@@H](NC(=O)[C@H](CCC(=O)O)NC(=O)[C@H](CCCNC(=N)N)NC(=O)[C@H](CCCNC(=N)N)NC(=O)CNC(=O)[C@H](CCC(N)=O)NC(=O)[C@H](CC(C)C)NC(=O)[C@H](CCCNC(=N)N)NC(=O)CNC(=O)CNC(=O)[C@H](CCCNC(=N)N)NC(=O)[C@H](C)NC(=O)[C@H](CO)NC(=O)[C@H](CCCNC(=N)N)NC(=O)CNC(=O)CNC(=O)[C@H](C)NC(=O)[C@H](C)NC(=O)CCCC[C@@H]1SC[C@@H]2NC(=O)N[C@@H]21)[C@@H](C)O)C(=O)O [HPV E6 33 (modified)] (Biotin-AAGGRSARGGRLQGRRETAL-OH; C-terminus assumed)
Classification ([1]; PDZ KIAA0807(S), PDZ Domain 1): 5 (A450 nm of 4 more than 2× repeated) | Classification ([2]; PDZ MUPP-1, PDZ Domain 13): 2 (A450 nm 1-2) | Classification ([3]; PDZ KIAA1634, PDZ Domain 1): 5 (A450 nm of 4 more than 2× repeated)

CC(C)C[C@H](NC(=O)[C@H](CC(C)C)NC(=O)[C@@H](NC(=O)[C@H](CC(=O)O)NC(=O)CCCC[C@@H]1SC[C@@H]2NC(=O)N[C@@H]21)[C@@H](C)O)C(=O)N[C@@H](CC(C)C)C(=O)N[C@H](C(=O)N[C@@H](CCC(=O)O)C(=O)N[C@@H](CC(N)=O)C(=O)N[C@@H](CCC(=O)O)C(=O)NCC(=O)N[C@@H](CC(=O)O)C(=O)N[C@@H](CCCCN)C(=O)N[C@H](C(=O)N[C@@H](CCC(=O)O)C(=O)N[C@@H](CCC(=O)O)C(=O)N[C@@H](CCC(N)=O)C(=O)N[C@H](C(=O)N[C@@H](CO)C(=O)N[C@@H](Cc1ccc(O)cc1)C(=O)N[C@H](C(=O)O)C(C)C)C(C)C)[C@@H](C)O)[C@@H](C)O [5H2B_HUMAN] (Biotin-DTLLLTENEGDKTEEQVSYV-OH; C-terminus assumed)
Classification ([1]; PDZ KIAA807): 1 (A450 nm 0-1) | Classification ([1]; PDZ KIAA0807(S), PDZ Domain 1): 1 (A450 nm 0-1) | Classification ([3]; PDZ KIAA1634, PDZ Domain 2): 5 (A450 nm of 4 more than 2× repeated)

CC(C)C[C@H](NC(=O)[C@H](Cc1c[nH]c2ccccc12)NC(=O)[C@H](Cc1c[nH]cn1)NC(=O)[C@H](CCCNC(=N)N)NC(=O)[C@H](CC(C)C)NC(=O)[C@@H](NC(=O)[C@H](Cc1ccccc1)NC(=O)[C@H](CCC(N)=O)NC(=O)[C@H](CCCNC(=N)N)NC(=O)[C@@H](NC(=O)[C@H](CCC(=O)O)NC(=O)CNC(=O)[C@H](CCCNC(=N)N)NC(=O)[C@H](CC(=O)O)NC(=O)[C@@H](NC(=O)[C@H](CC(C)C)NC(=O)[C@H](CCC(=O)O)NC(=O)[C@H](CCCNC(=N)N)NC(=O)CCCC[C@@H]1SC[C@@H]2NC(=O)N[C@@H]21)C(C)C)C(C)C)[C@@H](C)O)C(=O)N[C@@H](CCCCN)C(=O)N[C@H](C(=O)O)C(C)C [Dopamine transporter (Na+-dependent)] (Biotin-RELVDRGEVRQFTLRHWLKV-OH; C-terminus assumed)
Classification ([1]; PDZ KIAA807): 4 (A450 nm 3-4) | Classification ([1]; PDZ KIAA0807(S), PDZ Domain 1): 4 (A450 nm 3-4) | Classification ([3]; PDZ KIAA1634, PDZ Domain 1): 3 (A450 nm 2-3)

ALVLIAFCIIRRRPSAYQAL (Biotin-ALVLIAFCIIRRRPSAYQAL) [CD68]
Classification ([1]; PDZ KIAA0807(S), PDZ Domain 1): 5 (A450 nm of 4 more than 2× repeated) | Classification ([3]; PDZ KIAA1634, PDZ Domain 1): 2 (A450 nm 1-2)

ARHRVTSYTSSSVNVSSNL (Biotin-ARHRVTSYTSSSVNVSSNL) [IL-8RB]
Classification ([2]; PDZ MUPP-1, PDZ Domain 13): 1 (A450 nm 0-1) | Classification ([3]; PDZ KIAA1634, PDZ Domain 1): 1 (A450 nm 0-1) | Classification ([3]; PDZ KIAA1634, PDZ Domain 5): 1 (A450 nm 0-1)

CC[C@H](C)[C@H](NC(=O)CNC(=O)[C@H](CO)NC(=O)[C@H](Cc1ccccc1)NC(=O)[C@@H](NC(=O)[C@H](CS)NC(=O)CNC(=O)CNC(=O)[C@H](C)NC(=O)[C@@H]1CCCN1C(=O)[C@@H](NC(=O)[C@@H]1CCCN1C(=O)CCCC[C@@H]1SC[C@@H]2NC(=O)N[C@@H]21)[C@@H](C)CC)[C@@H](C)O)C(=O)N[C@@H](Cc1ccccc1)C(=O)N1CCC[C@H]1C(=O)N[C@H](C(=O)N[C@@H](CC(C)C)C(=O)N[C@H](C(=O)N[C@@H](CO)C(=O)N1CCC[C@H]1C(=O)N[C@@H](CC(C)C)C(=O)O)[C@@H](C)O)[C@@H](C)O [KIA 1481] (Biotin-PIPAGGCTFSGIFPTLTSPL-OH; C-terminus assumed)
Classification ([1]; PDZ KIAA0807(S), PDZ Domain 1): 5 (A450 nm of 4 more than 2× repeated) | Classification [1, 4]: 5 (A450 nm of 4 more than 2× repeated) | Classification ([3]; PDZ KIAA1634, PDZ Domain 1): 2 (A450 nm 1-2) | Classification ([3]; PDZ KIAA1634, PDZ Domain 2): 1 (A450 nm 0-1) | Classification ([3]; PDZ KIAA1634, PDZ Domain 5): 1 (A450 nm 0-1)

CC(C)C[C@H](NC(=O)[C@H](CC(=O)O)NC(=O)[C@H](CO)NC(=O)[C@H](CCC(=O)O)NC(=O)CNC(=O)[C@H](Cc1ccc(O)cc1)NC(=O)[C@H](CC(C)C)NC(=O)[C@H](C)NC(=O)[C@H](CO)NC(=O)[C@H](CO)NC(=O)[C@H](Cc1ccccc1)NC(=O)[C@H](C)NC(=O)[C@H](C)NC(=O)[C@H](Cc1ccc(O)cc1)NC(=O)[C@H](CC(=O)O)NC(=O)[C@H](CC(C)C)NC(=O)[C@H](C)NC(=O)CNC(=O)[C@@H]1CCCN1C(=O)[C@@H](NC(=O)CCCC[C@@H]1SC[C@@H]2NC(=O)N[C@@H]21)C(C)C)C(=O)O [a-actinin 2] (Biotin-VPGALDYAAFSSALYGESDL-OH; C-terminus assumed)
Classification ([1]; PDZ KIAA0807(S), PDZ Domain 1): 5 (A450 nm of 4 more than 2× repeated) | Classification [1, 4]: 5 (A450 nm of 4 more than 2× repeated) | Classification ([3]; PDZ KIAA1634, PDZ Domain 5): 5 (A450 nm of 4 more than 2× repeated)

CC[C@H](C)[C@H](NC(=O)[C@H](CCC(N)=O)NC(=O)CCCC[C@@H]1SC[C@@H]2NC(=O)N[C@@H]21)C(=O)N[C@@H](CO)C(=O)N1CCC[C@H]1C(=O)NCC(=O)NCC(=O)N[C@@H](CC(C)C)C(=O)N[C@@H](CCC(=O)O)C(=O)N1CCC[C@H]1C(=O)N1CCC[C@H]1C(=O)N[C@@H](CO)C(=O)N[C@@H](CCC(=O)O)C(=O)N[C@@H](CCCCN)C(=O)N[C@@H](Cc1c[nH]cn1)C(=O)N[C@@H](Cc1ccccc1)C(=O)N[C@@H](CCCNC(=N)N)C(=O)N[C@@H](CCC(=O)O)C(=O)N[C@H](C(=O)N[C@@H](CCC(=O)O)C(=O)N[C@H](C(=O)O)C(C)C)[C@@H](C)O [Tax]
Classification ([2]; PDZ MUPP-1, PDZ Domain 13): 5 (A450 nm of 4 more than 2× repeated) | Classification ([3]; PDZ KIAA1634, PDZ Domain 1): 5 (A450 nm of 4 more than 2× repeated) | Classification ([3]; PDZ KIAA1634, PDZ Domain 2): 2 (A450 nm 1-2) | Classification ([3]; PDZ KIAA1634, PDZ Domain 4): 2 (A450 nm 1-2) | Classification ([3]; PDZ KIAA1634, PDZ Domain 5): 1 (A450 nm 0-1)

PYSELNYETSHYPASPDSWV (Biotin-PYSELNYETSHYPASPDSWV) [catenin - delta 2]
Classification ([1]; PDZ KIAA0807(S), PDZ Domain 1): 3 (A450 nm 2-3) | Classification ([1]; PDZ KIAA807 (domain not given)): 4 (A450 nm 3-4) | Classification ([3]; PDZ KIAA1634, PDZ Domain 5): 3 (A450 nm 2-3)
